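These data come from cells grown in 96-well plates and exposed to compound for 48 hours at five concentrations. Definition used: TGI = concentration required for complete inhibition of growth.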
Legend:
Experiment in all cases: DTP human tumour cell line panel, 48 h
A498 renal = tested on: A498 renal
BT-549 breast = tested on: BT-549 breast
CAKI-1 renal = tested on: CAKI-1 renal
CCRF-CEM leukemia = tested on: CCRF-CEM leukemia
COLO 205 colon = tested on: COLO 205 colon
DU-145 prostate = tested on: DU-145 prostate
HCC-2998 colon = tested on: HCC-2998 colon
HCT-116 colon = tested on: HCT-116 colon
HCT-15 colon = tested on: HCT-15 colon
HL-60(TB) leukemia = tested on: HL-60(TB) leukemia
HOP-62 NSCLC = tested on: HOP-62 NSCLC
HOP-92 NSCLC = tested on: HOP-92 NSCLC
HS 578T breast = tested on: HS 578T breast
HT29 colon = tested on: HT29 colon
IGROV1 ovarian = tested on: IGROV1 ovarian
K-562 leukemia = tested on: K-562 leukemia
KM12 colon = tested on: KM12 colon
LOX IMVI melanoma = tested on: LOX IMVI melanoma
M14 melanoma = tested on: M14 melanoma
MALME-3M melanoma = tested on: MALME-3M melanoma
MCF7 breast = tested on: MCF7 breast
MDA-MB-435 = tested on: MDA-MB-435
MDA-N = tested on: MDA-N
MOLT-4 leukemia = tested on: MOLT-4 leukemia
NCI-H226 lung = tested on: NCI-H226 lung
NCI-H23 lung = tested on: NCI-H23 lung
NCI-H460 lung = tested on: NCI-H460 lung
NCI/ADR-RES ovarian = tested on: NCI/ADR-RES ovarian
OVCAR-3 ovarian = tested on: OVCAR-3 ovarian
OVCAR-4 ovarian = tested on: OVCAR-4 ovarian
OVCAR-5 ovarian = tested on: OVCAR-5 ovarian
OVCAR-8 ovarian = tested on: OVCAR-8 ovarian
PC-3 prostate = tested on: PC-3 prostate
RPMI-8226 leukemia = tested on: RPMI-8226 leukemia
RXF 393 renal = tested on: RXF 393 renal
SF-295 CNS = tested on: SF-295 CNS
SK-MEL-2 melanoma = tested on: SK-MEL-2 melanoma
SK-MEL-28 melanoma = tested on: SK-MEL-28 melanoma
SK-MEL-5 melanoma = tested on: SK-MEL-5 melanoma
SK-OV-3 ovarian = tested on: SK-OV-3 ovarian
SN12C renal = tested on: SN12C renal
SNB-19 CNS = tested on: SNB-19 CNS
SNB-75 CNS = tested on: SNB-75 CNS
SR leukemia = tested on: SR leukemia
SW-620 colon = tested on: SW-620 colon
T-47D breast = tested on: T-47D breast
TK-10 renal = tested on: TK-10 renal
U251 CNS = tested on: U251 CNS
UACC-257 melanoma = tested on: UACC-257 melanoma
UACC-62 melanoma = tested on: UACC-62 melanoma
UO-31 renal = tested on: UO-31 renal
786-0 renal = tested on: 786-0 renal
A549 NSCLC = tested on: A549 NSCLC
ACHN renal = tested on: ACHN renal
EKVX NSCLC = tested on: EKVX NSCLC
MDA-MB-231 breast = tested on: MDA-MB-231 breast
NCI-H522 lung = tested on: NCI-H522 lung
SF-268 CNS = tested on: SF-268 CNS
SF-539 CNS = tested on: SF-539 CNS

Measured: TGI

COC1OC(CS(=O)(=O)O)C(O)C(O)C1O (stereo not given)
not listed: 786-0 renal | A549 NSCLC | ACHN renal | EKVX NSCLC | MDA-MB-231 breast | NCI-H522 lung | SF-268 CNS | SF-539 CNS
> 100 µM: all other assays above

O=NNc1ccc2ccccc2n1
not listed: COLO 205 colon | HCC-2998 colon | HOP-92 NSCLC | MALME-3M melanoma | RXF 393 renal
> 100 µM: all other assays above

Source: PubChem BioAssay (NCI)
